We go through twelve compounds from US20230365537A1, “POLO LIKE KINASE 4 INHIBITORS” (ORIC Pharmaceuticals, Inc., priority 2021, published 2023).

One assay deals with CHP-134 cells. The experiment in a line: CHP134 CellTiter-Glo (CTG) Assay. It is filed as cell-based. The note with it: Homo sapiens, CHP-134, 120 h, 5 days, viable cells by CellTiter-Glo. Put shortly:
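CHP-134 cells seeded at 200 cells/well for 16 h, then given nine 1:3 serial dilutions in quadruplicate at 37° C, 5% CO2. Viable cells measured by CellTiter-Glo luminescence after 5 days; IC50 calculated from curves.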

The target of assay [1] is human recombinant Aurora B (Homo sapiens (Human), UniProt Q96GD4). The assay is described as follows: Aurora B Kinase Biochemical Assay (ADP-Glo). As to conditions: ratio of Aurora B IC50 to PLK4 IC50 (selectivity). In short, it runs like this:
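Recombinant human Aurora B (20 nM in pH 7.5 HEPES buffer with MgCl2, EGTA, DTT, Brij-35, BSA) preincubated with compound 15 min at RT. ADP formed quantified by ADP-Glo luminescence after ATP depletion (40 min) and detection (30 min). IC50 from four-parameter non-linear regression.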

The target in assay [2] is human recombinant Aurora A (Homo sapiens (Human), UniProt O14965). The experiment in a line: Aurora A Kinase Biochemical Assay (ADP-Glo). The note with it: ratio of Aurora A IC50 to PLK4 IC50 (selectivity).
human recombinant Aurora A, sequence (O14965 whole entry): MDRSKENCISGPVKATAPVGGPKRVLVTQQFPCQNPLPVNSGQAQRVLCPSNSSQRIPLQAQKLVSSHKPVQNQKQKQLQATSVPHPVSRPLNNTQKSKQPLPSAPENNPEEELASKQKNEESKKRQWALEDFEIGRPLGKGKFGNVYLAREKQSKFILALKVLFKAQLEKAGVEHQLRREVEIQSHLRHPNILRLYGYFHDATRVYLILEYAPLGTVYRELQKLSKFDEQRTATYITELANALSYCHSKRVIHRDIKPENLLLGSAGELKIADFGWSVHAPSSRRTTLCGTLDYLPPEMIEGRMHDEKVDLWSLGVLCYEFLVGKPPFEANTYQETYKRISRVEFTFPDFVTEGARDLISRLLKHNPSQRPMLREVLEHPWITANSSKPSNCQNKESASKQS
For a further assay, the target named is human recombinant PLK4 (Homo sapiens (Human), UniProt O00444). The experiment in a line: PLK4 Biochemical Assay (ADP-Glo). The note with it: 0.5 nM PLK4, 8.0 µM ATP, 4.7 µM MBP, 6 hours at RT. Put shortly:
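Recombinant human PLK4 (added at 1.0 nM) was preincubated 15 min at RT with compound in 50 mM HEPES pH 7.5, 10 mM MgCl2, 1 mM EGTA, 1 mM DTT, 0.01% Brij-35, 0.01% BSA. ADP formed was detected by ADP-Glo luminescence (40 min ATP depletion, 30 min detection). IC50 came from a four-parameter fit.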

human recombinant Aurora B, sequence (Q96GD4 whole entry): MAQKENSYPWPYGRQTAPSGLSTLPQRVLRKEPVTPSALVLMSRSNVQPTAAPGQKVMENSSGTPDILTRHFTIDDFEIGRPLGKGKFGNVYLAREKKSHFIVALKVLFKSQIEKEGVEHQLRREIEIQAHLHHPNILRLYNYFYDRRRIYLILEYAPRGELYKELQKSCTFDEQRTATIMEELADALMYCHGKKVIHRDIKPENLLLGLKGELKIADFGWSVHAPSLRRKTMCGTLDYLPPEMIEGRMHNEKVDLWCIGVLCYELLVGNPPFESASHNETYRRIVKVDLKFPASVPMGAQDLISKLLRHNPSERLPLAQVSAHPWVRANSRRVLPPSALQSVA
human recombinant PLK4, sequence (O00444 whole entry): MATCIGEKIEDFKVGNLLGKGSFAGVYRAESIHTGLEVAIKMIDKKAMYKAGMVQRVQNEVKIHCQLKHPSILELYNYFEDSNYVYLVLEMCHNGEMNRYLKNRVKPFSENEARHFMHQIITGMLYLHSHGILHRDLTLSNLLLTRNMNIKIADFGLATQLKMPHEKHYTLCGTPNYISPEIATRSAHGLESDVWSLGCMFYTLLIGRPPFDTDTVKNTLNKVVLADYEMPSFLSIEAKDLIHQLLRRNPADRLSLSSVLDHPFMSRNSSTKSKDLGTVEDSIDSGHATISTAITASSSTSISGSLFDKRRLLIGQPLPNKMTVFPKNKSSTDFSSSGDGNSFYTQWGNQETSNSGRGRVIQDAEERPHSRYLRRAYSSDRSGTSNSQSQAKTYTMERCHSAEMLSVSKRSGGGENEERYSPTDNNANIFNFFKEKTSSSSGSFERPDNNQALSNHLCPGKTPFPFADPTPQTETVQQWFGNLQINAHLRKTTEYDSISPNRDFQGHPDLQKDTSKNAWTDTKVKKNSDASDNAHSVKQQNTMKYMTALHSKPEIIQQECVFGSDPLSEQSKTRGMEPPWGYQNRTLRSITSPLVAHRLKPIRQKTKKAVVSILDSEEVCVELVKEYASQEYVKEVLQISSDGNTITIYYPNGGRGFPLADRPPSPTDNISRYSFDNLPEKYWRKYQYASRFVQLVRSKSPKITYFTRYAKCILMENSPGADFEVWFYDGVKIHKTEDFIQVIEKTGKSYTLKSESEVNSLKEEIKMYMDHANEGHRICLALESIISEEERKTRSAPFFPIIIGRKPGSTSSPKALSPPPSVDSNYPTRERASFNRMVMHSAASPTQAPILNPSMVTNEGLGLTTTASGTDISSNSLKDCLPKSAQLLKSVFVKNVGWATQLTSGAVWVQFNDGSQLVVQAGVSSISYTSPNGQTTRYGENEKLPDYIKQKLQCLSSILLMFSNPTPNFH

Take `COc1ccc2c(c1)[C@]1(C[C@H]1c1ccc3c(Nc4ncc(C(=O)N5CCC5)cc4OC)n[nH]c3c1)C(=O)N2` [Example 263, (1R,2S)-2-(3-{[5-(azetidine-1-carbonyl)-3-methoxypyridin-2-yl]amino}-1H-indazol-6-yl)-5′-methoxyspiro[cyclopropane-1,3′-indol]-2′(1′H)-one]: the IC50 with CHP-134 cells worked out at 599 nM; at human recombinant PLK4, 0.65 nM. For the same compound, in assay [1], the “[Aurora B IC50 (nM)]/[PLK4 IC50 (nM)]” value was 181.6923. The “[Aurora A IC50 (nM)]/[PLK4 IC50 (nM)]” value in assay [2] was 1133.6923.
With `COc1ccc2c(c1)[C@]1(C[C@H]1c1ccc3c(Nc4ncc(C(=O)N5CCOCC5)cc4OC)n[nH]c3c1)C(=O)N2` [Example 264, (1R,2S)-5′-methoxy-2-(3-{[3-methoxy-5-(morpholine-4-carbonyl)pyridin-2-yl]amino}-1H-indazol-6-yl)spiro[cyclopropane-1,3′-indol]-2′(1′H)-one], the IC50 in the assay on CHP-134 cells was 860 nM; on human recombinant PLK4, 0.785 nM. Moreover, the “[Aurora B IC50 (nM)]/[PLK4 IC50 (nM)]” value in assay [1] is given as 66.6751. Also, the “[Aurora A IC50 (nM)]/[PLK4 IC50 (nM)]” value in assay [2] is on record as 307.8980.
As for `COc1ccc2c(c1)[C@]1(C[C@H]1c1ccc3c(Nc4cc5c(cc4OC)C(=O)N(C)C5)n[nH]c3c1)C(=O)N2` [Example 265, (1R,2S)-5′-methoxy-2-{3-[(6-methoxy-2-methyl-1-oxo-2,3-dihydro-1H-isoindol-5-yl)amino]-1H-indazol-6-yl)spiro[cyclopropane-1,3′-indol]-2′(1′H)-one], the IC50 was found to be 1070 nM in the assay with CHP-134 cells and 1.98 nM at human recombinant PLK4. Further, the “[Aurora B IC50 (nM)]/[PLK4 IC50 (nM)]” value in assay [1] was found to be 725.3912. The “[Aurora A IC50 (nM)]/[PLK4 IC50 (nM)]” value in assay [2] came to 686.
Regarding `COc1ccc2c(c1)[C@]1(C[C@H]1c1ccc3c(Nc4ccc5c(c4OC)CN(C)C5=O)n[nH]c3c1)C(=O)N2` [Example 266, (1R,2S)-5′-methoxy-2-{3-[(4-methoxy-2-methyl-1-oxo-2,3-dihydro-1H-isoindol-5-yl)amino]-1H-indazol-6-yl}spiro[cyclopropane-1,3′-indol]-2′(1′H)-one], the IC50 in the assay on CHP-134 cells came out at 792 nM; at human recombinant PLK4 it was 2.34 nM. Further, in assay [1], the “[Aurora B IC50 (nM)]/[PLK4 IC50 (nM)]” value was determined as 154.9914. For the same compound, in assay [2], the “[Aurora A IC50 (nM)]/[PLK4 IC50 (nM)]” value is reported as 723.9761.
On the same counts, the results for `COc1ccc2c(c1)[C@]1(C[C@H]1c1ccc3c(Nc4ncc(S(=O)(=O)N5CCCO5)cc4OC)n[nH]c3c1)C(=O)N2` [Example 267, (1R,2S)-5′-methoxy-2-(3-{[3-methoxy-5-(1,2-oxazolidine-2-sulfonyl)pyridin-2-yl]amino}-1H-indazol-6-yl)spiro[cyclopropane-1,3′-indol]-2′(1′H)-one] are 325 nM, 1.57 nM, 406.8833 and 789.0376.
Regarding `COc1ccc2c(c1)[C@]1(C[C@H]1c1ccc3c(Nc4ncc(S(=O)(=O)N5CCC5)cc4OC)n[nH]c3c1)C(=O)N2` [Example 268, (1R,2S)-2-(3-{[5-(azetidine-1-sulfonyl)-3-methoxypyridin-2-yl]amino}-1H-indaxol-6-yl)-5′-methoxyspiro[cyclopropane-1,3′-indol]-2′(1′H)-one], the values for the IC50 in the assay with CHP-134 cells and on human recombinant PLK4 were 124 nM and 0.874 nM, respectively. Further, the “[Aurora B IC50 (nM)]/[PLK4 IC50 (nM)]” value in assay [1] worked out at 769.9084. In addition, the “[Aurora A IC50 (nM)]/[PLK4 IC50 (nM)]” value in assay [2] is listed as 1159.
Regarding `COc1ccc2c(c1)[C@]1(C[C@H]1c1ccc3c(Nc4ncc(S(=O)(=O)NC5(C)COC5)cc4OC)n[nH]c3c1)C(=O)N2` [Example 269, 5-methoxy-6-({6-[(1R,2S)-5′-methoxy-2′-oxo-1′,2′-dihydrospiro[cyclopropane-1,3′-indol]-2-yl]-1H-indazol-3-yl}amino)-N-(3-methyloxetan-3-yl)pyridine-3-sulfonamide], the IC50 with CHP-134 cells was 1350 nM; on human recombinant PLK4 it was 0.89 nM. For the same compound, the “[Aurora B IC50 (nM)]/[PLK4 IC50 (nM)]” value in assay [1] amounted to 138.7640. In addition, the “[Aurora A IC50 (nM)]/[PLK4 IC50 (nM)]” value in assay [2] came out at 191.7977.
As to `COc1ccc2c(c1)[C@]1(C[C@H]1c1ccc3c(Nc4ncc(S(=O)(=O)N(C)C5(C)COC5)cc4OC)n[nH]c3c1)C(=O)N2` [Example 270, 5-methoxy-6-({6-[(1R,2S)-5′-methoxy-2′-oxo-1′,2′-dihydrospiro[cyclopropane-1,3′-indol]-2-yl]-1H-indazol-3-yl}amino)-N-methyl-N-(3-methyloxetan-3-yl)pyridine-3-sulfonamide], the IC50 came to 269 nM with CHP-134 cells and 0.564 nM at human recombinant PLK4. Moreover, the “[Aurora B IC50 (nM)]/[PLK4 IC50 (nM)]” value in assay [1] is on record as 1790.7801. In addition, the “[Aurora A IC50 (nM)]/[PLK4 IC50 (nM)]” value in assay [2] came out at 473.6.
As for `CCOc1cc(S(C)(=O)=O)ccc1Nc1n[nH]c2cc([C@@H]3C[C@@]34C(=O)Nc3ccc(OC)cc34)ccc12` [Example 272, (1R,2S)-2-{3-[2-Ethoxy-4-(methanesulfonyl)anilino]-1H-indazol-6-yl}-5′-methoxyspiro[cyclopropane-1,3′-indol]-2′(1′H)-one], the IC50 amounted to 77.8 nM with CHP-134 cells and 0.833 nM at human recombinant PLK4. For the same compound, the “[Aurora B IC50 (nM)]/[PLK4 IC50 (nM)]” value in assay [1] worked out at 448.8595. The “[Aurora A IC50 (nM)]/[PLK4 IC50 (nM)]” value in assay [2] was 3273.7094.
For the compound `CCOc1cc(S(=O)(=O)N2CCN(C)CC2)cnc1Nc1n[nH]c2cc([C@@H]3C[C@@]34C(=O)Nc3ccc(OC)cc34)ccc12` [Example 273, (1R,2S)-2-(3-{[3-ethoxy-5-(4-methylpiperazine-1-salfonyl)pyridin-2-yl]amino)-1H-indazol-6-yl)-5′-methoxyspiro[cyclopropane-1,3′-indol]-2′(1′H)-one], the IC50 is 1700 nM in the assay with CHP-134 cells and 1.45 nM on human recombinant PLK4. The “[Aurora B IC50 (nM)]/[PLK4 IC50 (nM)]” value in assay [1] is on record as 2831.3833. Besides, the “[Aurora A IC50 (nM)]/[PLK4 IC50 (nM)]” value in assay [2] was 3483.1383.
As for `CCOc1cc(S(=O)(=O)CC)cnc1Nc1n[nH]c2cc([C@@H]3C[C@@]34C(=O)Nc3ccc(OC)cc34)ccc12` [Example 274, (1R,2S)-2-(3-{[5-(Ethanesulfonyl)-3-ethoxypyridin-2-yl]amino}-1H-indazol-6-yl)-5′-methoxyspiro[cyclopropane-1,3′-indol]-2′(1′H)-one], the IC50 in the assay with CHP-134 cells was 72.3 nM; at human recombinant PLK4, 0.763 nM. For the same compound, the “[Aurora B IC50 (nM)]/[PLK4 IC50 (nM)]” value in assay [1] is 961.3368. For the same compound, the “[Aurora A IC50 (nM)]/[PLK4 IC50 (nM)]” value in assay [2] worked out at 2560.9436.
With `CCOc1cc(S(C)(=O)=O)cnc1Nc1n[nH]c2cc([C@@H]3C[C@@]34C(=O)Nc3ccc(Cl)cc34)ccc12` [Example 276, (1R,2S)-5′-chloro-2-(3-{[3-ethoxy-5-(methanesulfonyl)pyridin-2-yl]amino}-1H-indazol-6-yl)spiro[cyclopropane-1,3′-indol]-2′(1′H)-one], the concentration for half-maximal inhibition (IC50) with CHP-134 cells came out at 4080 nM; on human recombinant PLK4, 2.61 nM. For the same compound, the “[Aurora B IC50 (nM)]/[PLK4 IC50 (nM)]” value in assay [1] was 2173.2976. In addition, the “[Aurora A IC50 (nM)]/[PLK4 IC50 (nM)]” value in assay [2] was found to be 377.9648.
